From patent publication US12274684B2, “Treatment of vasculopathy with prostacyclin and mesenchymal stem cells” (United Therapeutics Corporation, priority 2013, dated 2025)
Entries after “also recorded” stand apart in the source; their conditions may differ.

How the values were obtained:
[1] = system: human bone marrow MSC; assay: Bead-based immunoassay (Luminex) of cytokines in MSC culture supernatant; assay type: cell-based; conditions: 250 μg/mL, 24 h
Experimental: Human bone marrow MSC were expanded and seeded into six (6) T225 flasks using standard growth medium (Table 1). At 95-99% confluency, cells were thoroughly washed with PBS. Three (3) flasks were replenished with basal media containing 250 μg/mL treprostinil, (+)Tre, and the remaining three (3) flasks were replenished with unsupplemented basal media, (−)Tre. After 24 hours of culture, representative images were captured from (+) Tre and (−) Tre cultures. Conditioned media was collected from each replicate, divided into two samples of appropriate volumes, and analyzed separately for: 1) secreted proteins (Myriad RBM InflammationMAP® 1.0) and 2) exosome RNA content. Cells were lysed directly from culture flasks, processed for total RNA isolation, and analyzed for gene expression by microarray (Illumina Human HT12 Expression BeadChip). Bead-based immunoassays (Luminex) was performed to assess the concentration of 46 cytokines in cell culture supernatants (Myriad RBM Human InflammationMAP® 1.0). Of the 46 evaluated, 6 were differentially secreted in treprostinil-treated and -untreated MSC cultures (see Table 6, n=3 per group). Asterisks indicate statistical significance between the groups based on a Student's T Test (*p<0.001, or **p<0.0001).

[2] = system: human bone marrow mesenchymal stem cells (BM-MSC); assay: VEGF secretion by MSC, ELISA of conditioned media; assay type: cell-based
Experimental: A single vial of human bone marrow-derived MSC was expanded and seeded into twenty (20) wells of 6-well plates using standard growth medium. At 95-99% confluency, cells were thoroughly washed with phosphate-buffered saline (PBS). Cells were then exposed to media containing 0, 0.1, 1.0, 10, or 100 μg/mL of treprostinil (n=4 wells for each concentration). After 24 hours of culture, the conditioned media was collected from each replicate and analyzed for Vascular Endothelial Growth Factor (VEGF) protein by enzyme-linked immunosorbent assay (ELISA). The goal of this experiment was to determine the optimal concentration of treprostinil needed to elicit a cellular response in MSC (using VEGF as a read out). A follow-up experiment to Example 1 was conducted to determine if treprostinil concentrations above 100 μg/mL affected MSC secretion of VEGF. As before, a single vial (same lot/batch) of bone marrow-derived MSC was expanded to thirty (30) wells of 6-well plates using standard growth medium. At 95-99% confluency, cells were thoroughly washed with PBS. Cells were then exposed to media containing 0, 100, 200, 300, or 400 μg/mL of treprostinil (n=6 wells for each concentration). Conditioned media was assayed for VEGF by ELISA after 24 hours of treprostinil exposure (n=4 replicates). Cells from those replicates were lysed, and RNA was extracted to determine VEGF-A gene expression by qRT-PCR. Cells from the remaining two (2) replicates were trypsinized, and assayed for cell viability by trypan blue exclusion. Cell culture supernatant was assayed for VEGF protein by ELISA (FIG. 3A, n=4). Cell lysates from those cultures were assayed for VEGF-A gene expression by qRT-PCR, and normalized to the control value (FIG. 3B, n=4). In both figures, error bars represent the standard deviation in each test group.

CCCCC[C@H](O)CC[C@@H]1[C@H]2Cc3cccc(OCC(=O)O)c3C[C@H]2C[C@H]1O [treprostinil]
IL-6 production, fold more compared to control MSC [1]: ~50 fold
MCP-1 secretion, fold less than control MSC [1]: 6-7 fold
Interleukin-8 (IL-8) secretion ([1]; DECREASED vs (−) Treprostinil 2.4 +/− 1.0 pg/ml): Below detection
Tissue Inhibitor of Metalloproteinases 1 (TIMP-1) secretion ([1]; DECREASED vs (−) Treprostinil 29 +/− 3 ng/ml, p<0.001): 12 ± 1 ng/mL
Monocyte Chemotactic Protein 1 (MCP-1) secretion ([1]; DECREASED vs (−) Treprostinil 379 +/− 35 pg/ml, p<0.0001): 47 ± 9 pg/mL
Ferritin (FRTN) secretion ([1]; INCREASED vs (−) Treprostinil 0.70 +/− 0.11 ng/mL): 0.96 ± 0.01 ng/mL
Interleukin-6 (IL-6) secretion ([1]; INCREASED vs (−) Treprostinil 62 +/− 6 pg/ml, p<0.0001): 3580 ± 384 pg/mL
Vascular Endothelial Growth Factor (VEGF) secretion ([1]; INCREASED vs (−) Treprostinil 235 +/− 16 pg/ml, p<0.0001): 612 ± 37 pg/mL
VEGF secretion, fold increase vs untreated controls ([2]; 100 μg/mL, 24 h (Example 2)): ~2 fold
VEGF secretion, fold of control values ([2]; 200 μg/mL, 24 h (Example 2)): 3 fold
VEGF secretion (ELISA) ([2]; 0.1, 1.0, 10, 100 μg/mL, 24 h, vs 0 μg/mL (Example 1, FIG. 2)): no statistically significant differences; also recorded: slight trend of increased VEGF secretion
VEGF secretion at higher concentrations ([2]; above 200 μg/mL (300, 400 μg/mL), 24 h): did not increase above this value
